{"source": "paper PMC6269819", "about": "“Evaluation of the Biological Activity of Naturally Occurring 5,8-Dihydroxycoumarin” (Molecules, 2013)", "key": {"[1]": {"tested_on": "human lymphocytes", "experiment": "Chromosome aberrations in human lymphocyte cultures in vitro", "type": "cell-based", "conditions": "for CA per 100 cells (±S.E.M.): 24 h treatment, pooled two donors", "experimental": "Blood samples were taken from two healthy female volunteers (donor A) and (donor B). Whole peripheral blood was grown in HEPES-buffered RPMI 1640 medium supplemented with 12% heat-inactivated newborn calf serum, 7.8 μg/mL phytohemagglutinin P, 50 μg/mL gentamycin, 10 μg/mL 5-bromo-2'-deoxyuridine. All reagents used for the cell culture were purchased from Sigma-Aldrich Chemical Co. (St. Louis, MO, USA). Cell cultures were incubated at 37 °C for 72 h. Treatment with test compounds was carried out 48 h after culture initiation and lasted for the period of 24 h. Dose range of 5,8-DHC (10 to 40 µg/mL) was based on pilot experiments (data not shown). As whole blood cultures display many properties common with the liver microsomal cytochrome P450 system, no external metabolising enzymes were added. 5,8-DHC was dissolved in ethanol and then diluted with RPMI 1640 medium to the desired concentration. Ethanol in a final concentration of 7.5µL/mL was used as a solvent control. […] Working solutions were made just before treatment. Two parallel cultures were used for each concentration of the compound tested. Two cultures were left untreated and served as a blank control. Methyl methanesulfonate (MMS) in a final concentration of 0.02 μL/mL was used as a positive control. The cultures were exposed to colchicine at a final concentration of 0.6 μg/mL for the last 3 h of incubation. The cells were harvested, hypotonically swollen in 0.075 M KCl and fixed in methanol: acetic acid (3:1). Air-dried slides were differentially stained by fluorescence plus Giemsa technique as has been described previously. Briefly, the slides were stained for 10 min. with 10 μg/mL of Hoechst 33258 dye (dissolved in 0.07 M Soerensen’s buffer, pH 6.8). Then the slides were rinsed, mounted with citrate buffer (pH 8.5), covered with cover slips and exposed to UV light (400 W mercury lamp at a distance of 15 cm) for 6–7 min. Slides were then rinsed and stained for 3–4 min. with 5% Giemsa. Cytogenetic analysis was performed on coded slides. No less than 100 first-mitotic division metaphases per culture were analysed for CAs, and no less than 50 second-division metaphases for SCEs."}, "[2]": {"experiment": "DPPH• radical scavenging assay", "conditions": "16 min reaction", "experimental": "Radical scavenging activity of extracts against stable DPPH^• (2,2-diphenyl-[…] hydrate, Sigma-Aldrich Chemie, Steinheim, Germany) was determined spectrophotometrically by using slightly modified method of Brand-Williams et al. (1995). 5,8-DHC was dissolved in methanol at 0.0025, 0.005, 0.010 and 0.025% concentrations before reaction. A 2 mL aliquot of DPPH^• solution in methanol (6 × 10^−5 M) was mixed with a 50 μL of 5,8-DHC solution in 1 cm path length quartz cuvette. The decreasing absorbance at 515 nm was recorded on a UV spectrophotometer Spectronic Genesys 8 (Spectronic Instruments, Rochester, NY, USA) during 16 min reaction time at 1 min intervals until the absorbance curve reached the plateau. The same amount of methanol and DPPH^• solution was used as a blank. The experiments were carried out in triplicate."}, "[3]": {"tested_on": "Drosophila melanogaster wing cells", "experiment": "Somatic mutation and recombination test (SMART), wing spot test", "type": "in vivo", "experimental": "The basic procedures for the D. melanogaster somatic mutation and recombination test (SMART) were performed according to Graf and co-workers. Two D. melanogaster strains (kindly provided by Dr. H. Frei, Zurich, Switzerland) were used in the present study: virgin females from the strain ORR/ORR; flr^3/ In (3LR) TM3, ri p^p sep l(3)89Aa bx^34e e Bd^S were mated with mwh/mwh males. The ORR strain has chromosomes 1 and 2 from a DDT-resistant Oregon line, which are characterized by constitutively over-expressed CYP450 genes. The CYP 450 enzymes play the main role in the bioactivation of xenobiotics, as well as natural products including phytochemicals. Thus, the use of this high-bioactivation strain of D. melanogaster facilitates the detection of promutagens of numerous classes of compounds. The markers mwh (multiple wing hairs) and flr^3 (misshapen, flare-like hairs) are recessive wing-hair mutations located on the third chromosome at 0.3 and 38.8 respectively.\nEggs from the crosses were collected over 10 h periods. Progeny were raised on the Instant Drosophila Medium (Sigma Chemical Co., St. Louis, MO, USA) at 25 °C. Two schedules of the larvae treatment were applied. Firstly, the crossed flies were permitted to lay eggs for 10 h in vials containing medium prepared with 5,8-DHC solution. Thus, the exposure duration was about 120 h (i.e., evolutionary period from fly egg till case-worm). According to the second schedule, the 72 ± 5 h-old larvae were exposed to 5,8-DHC by adding test solution to the surface of the medium and were fed on this medium for the rest of their development, during approximately 48 h. 5,8-DHC was dissolved in ethanol and then diluted with distilled water to the desired concentration, with the final ethanol concentration 5% v/v. The solutions were always prepared immediately before use. Solvent controls were included in all treatments. Methyl methanesulfonate was included in the assay as a positive control. Trans-heterozygous (mwh flr^+ / mwh^+ flr^3) flies were collected and stored in a 70% ethanol. The wings of adult flies were mounted on glass slides in Faure’s solution, coded and scored at 400× magnification (Nikon E200) for the presence of single (mwh or flr^3 phenotype) or twin (adjacent mwh and flr^3 clones) spots. The spots were recorded according to standard procedures. No less than 40 wings were analysed per each experimental point. Two repeated experiments were carried out."}, "[4]": {"conditions": "test solution 0.1%, exposure duration 48 h"}, "[5]": {"conditions": "test solution 0.1%, exposure duration 120 h"}, "[6]": {"conditions": "test solution 0.25%, exposure duration 48 h"}, "[7]": {"conditions": "test solution 0.25%, exposure duration 120 h"}, "[8]": {"conditions": "test solution 0.5%, exposure duration 48 h"}, "[9]": {"conditions": "test solution 0.5%, exposure duration 120 h"}}, "note": "Marks after values point to notes of the source that are not given here.", "data": [{"smiles": "O=c1ccc2c(O)ccc(O)c2o1", "note": "[5,8-DHC, 5,8-Dihydroxycoumarin]", "values": [{"measurement": "CA per 100 cells (±S.E.M.)", "setting": "[1]; 10 µg/mL", "value": "1.5 ± 0.9", "unit": "per 100 cells"}, {"measurement": "CA per 100 cells (±S.E.M.)", "setting": "[1]; 15 µg/mL", "value": "3.0 ± 1.2", "unit": "per 100 cells"}, {"measurement": "CA per 100 cells (±S.E.M.)", "setting": "[1]; 20 µg/mL", "value": "3.5 ± 1.3", "unit": "per 100 cells"}, {"measurement": "CA per 100 cells (±S.E.M.)", "setting": "[1]; 25 µg/mL", "value": "6.5 ± 1.7", "unit": "per 100 cells"}, {"measurement": "CA per 100 cells (±S.E.M.)", "setting": "[1]; 30 µg/mL", "value": "7.0 ± 1.8", "unit": "per 100 cells"}, {"measurement": "CA per 100 cells (±S.E.M.)", "setting": "[1]; 35 µg/mL", "value": "7.0 ± 1.8", "unit": "per 100 cells"}, {"measurement": "CA per 100 cells (±S.E.M.)", "setting": "[1]; 40 µg/mL", "value": "9.5 ± 2.1 ^b per 100 cells"}, {"measurement": "concentration giving statistically significant increase of CAs", "setting": "[1]; highest concentration only", "value": 40000, "unit": "ng/mL"}, {"measurement": "IC50 in DPPH• assay", "setting": "[2]", "value": 0.0185, "unit": "%"}, {"measurement": "large single spots", "setting": "[3]; 0.5% 5,8-DHC, 120 h of treatment", "value": 0.10, "unit": "spots per wing"}, {"measurement": "increase in the number of somatic mutations", "setting": "[3]; 48 h treatment", "value": "no statistically significant increase"}, {"measurement": "genotoxicity in SMART", "setting": "[3]; 120 h treatment", "value": "slight genotoxicity"}, {"measurement": "frequency of twin spots", "setting": "[3]; range over concentrations", "value": "0–0.04 spots per wing"}, {"measurement": "Spots/wing (±S.E.M.)", "setting": "[3]; [4]", "value": "0.27 ± 0.04", "unit": "spots/wing"}, {"measurement": "Wings with spots (% ± S.E.M.)", "setting": "[3]; [4]", "value": "26.8 ± 4.5", "unit": "%"}, {"measurement": "Spots/wing (±S.E.M.)", "setting": "[3]; [5]", "value": "0.25 ± 0.04 ^a spots/wing"}, {"measurement": "Wings with spots (% ± S.E.M.)", "setting": "[3]; [5]", "value": "22.4 ± 4.2", "unit": "%"}, {"measurement": "Spots/wing (±S.E.M.)", "setting": "[3]; [6]", "value": "0.22 ± 0.04", "unit": "spots/wing"}, {"measurement": "Wings with spots (% ± S.E.M.)", "setting": "[3]; [6]", "value": "21.1 ± 4.3", "unit": "%"}, {"measurement": "Spots/wing (±S.E.M.)", "setting": "[3]; [7]", "value": "0.30 ± 0.04 ^a spots/wing"}, {"measurement": "Wings with spots (% ± S.E.M.)", "setting": "[3]; [7]", "value": "27.1 ± 4.5^a %"}, {"measurement": "Spots/wing (±S.E.M.)", "setting": "[3]; [8]", "value": "0.27 ± 0.04", "unit": "spots/wing"}, {"measurement": "Wings with spots (% ± S.E.M.)", "setting": "[3]; [8]", "value": "25.0 ± 4.4", "unit": "%"}, {"measurement": "Spots/wing (±S.E.M.)", "setting": "[3]; [9]", "value": "0.32 ± 0.04 ^a spots/wing"}, {"measurement": "Wings with spots (% ± S.E.M.)", "setting": "[3]; [9]", "value": "28.9 ± 4.6^a %"}]}]}
